Data from US20260347403A1, “FUNGICIDAL COMPOUND” (priority 2022, published 2026).
Read-outs that look alike come from different tables or passages of the source. Numbered stars: 1 amine (or outer) side, 2 acyl side, 3 side chain; on linkers, the order of the positions; unused ones are H or OH. Bridge positions count the residues as written; N and C are the ends. Square brackets hold non-standard residues; d marks the D form. Peptide text beside a SMILES is read from it. * marks the point of attachment. Tridecanoyl(12-Me) = CC(C)CCCCCCCCCCC(=O)*; X1 = NC(=O)CC(O)C(N[*:1])C(=O)[*:2]; NMeF = CN[CH](Cc1ccccc1)C(=O)O; NMeN = CN[CH](CC(N)=O)C(=O)O

Tests used:
[1] = system: Sclerotinia sclerotiorum; assay: Liquid culture 96-well mixture assay with malonomicin, Sclerotinia sclerotiorum, 72 hrs; type: cell-based; details: plate column (1): compound of Formula I(a) alone, dilution series lines A (highest) to G; concentrations in Table 8
Protocol: (§1) A stock solution for compound of Formula I(a) was produced in DMSO (max. 10 mg/ml). Malonomicin was produced according to Law et al, 2018 (Nature Catalys is |VOL 1|DECEMBER 2018|977-984). A stock solution of malonomicin was produced in water plus 0.025% Tween® 20.
(§2) Assays to test efficacy of mixtures of the lipopeptide compound of Formula I(a) in combination with malonomicin on the control of fungal pathogens in a liquid culture assay were designed for a 96well plate as outlined in table 1:
(§3) The 96 well plate design allows to compare disease control of the mixture with disease control of the respective single compound at the same rate.
(§4) A master plate with 10× concentrated solution of the compound stock solutions diluted in water plus 0.025% Tween® 20 was prepared. The concentration of DMSO (from the stock of compound of Formula (a)) and Tween® 20 was kept constant in all cells of the master plate. 10 μl was transferred from the master plate to a 96well test plate. The nutrient broth containing the fungal spores/mycelia fragments was then added to the test plate to give an end concentration of 1× for the tested compounds (as outlined in Table 8). The test plates were incubated in the dark at 24 °C and 96% rh. The inhibition of fungal growth was determined photometrically after ca 3 days, and percent fungal growth reduction relative to the untreated check was calculated.
Sclerotinia sclerotiorum (EPPO Code: SCLESC)
Mycelial fragments of the fungus prepared from a fresh liquid culture were directly mixed into nutrient broth (PDB: potato dextrose broth).

[2] = system: Phaeosphaeria nodorum; assay: Leaf disc test on wheat, Phaeosphaeria nodorum (Glume Blotch), 5-7 days after application; type: in vivo, Phaeosphaeria nodorum (Septoria nodorum) on wheat; details: Table 5
Protocol: (§5) Leaf disks or leaf segments of various plant species were cut from plants grown in the greenhouse. The cut leaf disks, or segments were placed in multiwell plates (24-well format) onto water agar. The leaf disks were sprayed with a test solution before inoculation with the fungal spores. Compounds to be tested were prepared as DMSO solutions (max. 10 mg/ml) which were diluted to the appropriate concentration with water plus 0.025% Tween® 20 just before spraying. The inoculated leaf disks or segments were incubated under defined conditions (temperature, relative humidity, light, etc.) according to the respective test system. A single evaluation of disease level was carried out by visual evaluation 3-9 days days after inoculation, depending on the pathosystem as indicated below. Percent disease control relative to the untreated check leaf disks or segments was then calculated.
Phaeosphaeria Nodorum (Septoria nodorum)/Wheat/Leaf Disc (Glume Blotch)
Wheat leaf segments cv. Kanzler were placed on agar in a multiwell plate (24-well format) and sprayed with the formulated test compound diluted in water. The leaf disks were inoculated with a spore suspension of the fungus 2 days after application. The inoculated test leaf disks were incubated at 20 °C and 75% rh under a light regime of 12 h light/12 h darkness in a climate cabinet and the activity of a compound was assessed as percent disease control compared to untreated when an appropriate level of disease damage appears in untreated check leaf disks (5-7 days after application)

[3] = system: Zymoseptoria tritici; assay: Liquid culture 96-well mixture assay with malonomicin, Zymoseptoria tritici, 72 hrs; type: cell-based; details: read-out: control of fungal growth (% reduction)
Protocol: as §1, §2, §3, §4
Zymoseptoria tritici (EPPO Code: SEPTTR)
Conidia of the fungus from cryogenic storage were directly mixed into nutrient broth (PDB: potato dextrose broth).

[4] = system: Zymoseptoria tritici; assay: Liquid culture, Zymoseptoria tritici (Septoria tritici), Septoria leaf blotch, 4-5 days; type: cell-based; details: Zymoseptoria tritici, read-out: % reduction fungal growth
Protocol: (§6) Mycelia fragments or conidia suspensions of a fungus, prepared either freshly from liquid cultures of the fungus or from cryogenic storage, were directly mixed into nutrient broth.
(§7) A stock solution for compound of Formula I(a) and Formula I(b) was produced in DMSO (max. 10 mg/ml), which was diluted with water plus 0.025% Tween®20 to produce a 10× concentrated sample and 10 μl of this solution was pipetted into a microtiter plate (96-well format). The nutrient broth containing the fungal spores/mycelia fragments was then added to give an end concentration of the tested compound. The test plates were incubated in the dark at 24 °C and 96% rh. The inhibition of fungal growth was determined photometrically after 2-7 days, depending on the pathosystem, and percent antifungal activity relative to the untreated check was calculated.
(§8) The effect of the test compound (Formula I(a), I(b) and Lipopeptin A) was tested against the following fungi under the conditions as outlined above and specifically herein below:
Zymoseptoria tritici (Septoria tritici)/liquid culture (Septoria leaf blotch) Conidia of the fungus from cryogenic storage were directly mixed into nutrient broth (PDB potato dextrose broth). The inhibition of growth was determined photometrically 4-5 days after application.

[5] = system: several fungal species; assay: Leaf disc or leaf segment tests, summary over the fungi tested; type: in vivo; details: up to; Tables 4 and 5
Protocol: as §5

[6] = system: Glomerella lagenarium; assay: Liquid culture, Glomerella lagenarium (Colletotrichum lagenarium), Anthracnose, 3-4 days; type: cell-based; details: Colletotrichum orbiculare, read-out: % reduction fungal growth
Protocol: as §6, §7, §8
Glomerella lagenarium (Colletotrichum lagenarium)/Liquid Culture (Anthracnose)
Conidia of the fungus from cryogenic storage were directly mixed into nutrient broth (PDB potato dextrose broth). The inhibition of growth was measured photometrically 3-4 days after application.

[7] = system: ROS production induced by flg22; assay: Reactive Oxygen Species (ROS) burst assay with wheat leaf discs; details: Triticum aestivum, foliar
[8] = read-out: Fold change (peak ROS)

CC(C)CCCCCCCCCCC(=O)NC1C(=O)NC(CC(=O)O)C(=O)NC(C(O)CC(N)=O)C(=O)NC(CO)C(=O)N(C)C(CC(N)=O)C(=O)N(C)C(Cc2ccccc2)C(=O)NC(CCC(N)=O)C(=O)NC(CCC(=O)O)C(=O)OC1C (stereo not shown) [Formula I(a)] ({Tridecanoyl(12-Me)}-TD[X1]S[NMeN][NMeF]QE; ester 1-C; configuration not given here)
90%: inhibition of growth at 50 µg/mL ([3]; I(a) 50 ppm) | inhibition of growth at 100 µg/mL ([3]; I(a) 100 ppm) | inhibition of growth at 33 ppm ([4]; Table 3) | inhibition of growth at 100 ppm ([4]; Table 3) | inhibition of growth at 33 ppm ([6]; Table 2)
100%: inhibition of growth at 33 ppm ([4]; Table 2) | inhibition of growth at 100 ppm ([4]; Table 2) | inhibition of growth at 100 ppm ([6]; Table 2)
0.8: fold induction at 1 ppm [7, 8] | fold induction at 25 ppm [7, 8]
2.7: fold induction at 100 ppm [7, 8]
0%: control of fungal growth (% reduction of growth in the test well as compared to untreated check) [1] | % reduction of fungal growth ([2]; 0.82 ppm) | % reduction of fungal growth ([2]; 2.5 ppm) | % reduction of fungal growth ([2]; 7.4 ppm) | % reduction of fungal growth ([2]; 22 ppm) | % reduction of fungal growth ([2]; 67 ppm) | inhibition of growth at 1.56 µg/mL ([3]; I(a) 1.56 ppm) | inhibition of growth at 0.41 ppm ([4]; Table 2) | inhibition of growth at 1.2 ppm ([4]; Table 2) | inhibition of growth at 3.7 ppm ([4]; Table 2) | inhibition of growth at 0.41 ppm ([4]; Table 3) | inhibition of growth at 1.2 ppm ([4]; Table 3) | inhibition of growth at 3.7 ppm ([4]; Table 3) | inhibition of growth at 0.41 ppm ([6]; Table 2) | inhibition of growth at 1.2 ppm ([6]; Table 2) | inhibition of growth at 3.7 ppm ([6]; Table 2) | inhibition of growth at 0.41 ppm ([6]; Table 3) | inhibition of growth at 1.2 ppm ([6]; Table 3) | inhibition of growth at 3.7 ppm ([6]; Table 3) | inhibition of growth at 11 ppm ([6]; Table 3) | inhibition of growth at 33 ppm ([6]; Table 3)
50%: % reduction of fungal growth ([2]; 200 ppm) | inhibition of growth at 6.25 µg/mL ([3]; I(a) 6.25 ppm) | inhibition of growth at 11 ppm ([6]; Table 2) | inhibition of growth at 100 ppm ([6]; Table 3)
70%: inhibition of growth at 12.5 µg/mL ([3]; I(a) 12.5 ppm) | inhibition of growth at 25 µg/mL ([3]; I(a) 25 ppm) | inhibition of growth at 11 ppm ([4]; Table 2) | inhibition of growth at 11 ppm ([4]; Table 3)
≥ 2.7: fold induction at 100 ppm ([7]; read-out: increase of ROS production induced by flg22 (factor))
up to 95%: reduction of fungal growth [5]
20%: inhibition of growth at 3.125 µg/mL ([3]; I(a) 3.125 ppm)
